Experimental data: ChEMBL document CHEMBL1142227, “Structural basis for the high all-trans-retinaldehyde reductase activity of the tumor marker AKR1B10” (Proc Natl Acad Sci U S A, 2007)

Experiments:
[1] = molecular target: Aldo-keto reductase family 1 member B1 (Homo sapiens, UniProt P15121); test: Inhibition of glyceraldehyde reduction activity of human AKR1B1
[2] = molecular target: Aldo-keto reductase family 1 member B10 (Homo sapiens, UniProt O60218); test: Inhibition of retinaldehyde reductase activity of human AKR1B10
[3] = molecular target: Aldo-keto reductase family 1 member B1 (Rattus norvegicus, UniProt P07943); test: Inhibition of rat AKR1B4

Chain of Aldo-keto reductase family 1 member B10 (O60218 whole entry): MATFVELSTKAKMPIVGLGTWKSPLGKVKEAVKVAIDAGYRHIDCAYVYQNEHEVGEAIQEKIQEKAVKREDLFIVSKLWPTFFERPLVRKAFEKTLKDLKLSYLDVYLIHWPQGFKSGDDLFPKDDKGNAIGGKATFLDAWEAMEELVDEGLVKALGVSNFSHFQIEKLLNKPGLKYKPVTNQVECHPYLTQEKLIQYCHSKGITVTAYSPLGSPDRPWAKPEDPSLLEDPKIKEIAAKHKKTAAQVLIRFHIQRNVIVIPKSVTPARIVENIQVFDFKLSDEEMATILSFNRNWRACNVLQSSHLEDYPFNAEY

Row | IC50 [1] [nM] | IC50 [2] [nM] | IC50 [3] [nM] | Compound
1 | 10 | – | – | O=CC(O)CO (racemic)
2 | – | 11.6 | 1000 | COc1ccc2c(C(=S)N(C)CC(=O)O)cccc2c1C(F)(F)F [TOLRESTAT]
